According to patent publication US12517131B2, “Methods for labeling eukaryotic cells from a multicellular organism as well as for treating and/or diagnosing a cancer using modified monosaccharide compounds” (DIAMIDEX, priority 2019, dated 2026):

How the values were obtained:
Test in all cases: Labeling of cancer and non-cancer cells, fluorescence signal ratio
Type in all cases: cell-based, human
A375 (vs PIG) = details: A375 (26 h) vs PIG (26 h); Ara-N3 10 mM; FBS 10%; one doubling time
Experimental: (§1) The fluorescence Assimilation of Ara-N3 probes was visualized by copper-free click chemistry using sulfo-DBCO-biotin (1 mM), followed by labeling with a mouse anti-biotin Alexa Fluor 488 antibody conjugate (0.62 mg/ml stock, Jackson ImmunoResearch, dilution 1/10). The click reaction was carry-out as following: At 24 h incubation times, the culture mediums were removed, and attached cells were washed twice with PBS. Cells were detached with Tryp-LE, washed twice with PBS, and centrifuged at 13000 g for 2 min. The cellular pellets were resuspended with 10 μL of sulfo-DBCO-biotin and incubated 30 min in the dark, and at 37 C°. Then, cells were washed twice with PBS, centrifuged, and cellular pellets were resuspended with 10 μL of a mouse anti-biotin antibody solution, before to be incubated at room temperature in dark. Thereafter, cells were washed twice with PBS and small cellular suspension spots (5 μL) were put in Polysine® adhesion slides (VWR international S.A.S), in the dark room, until dry (20 min). The spots were fixed with 4% paraformaldehyde during 20 min, in dark and room temperature. Slides were then washed twice with PBS, before recovering with square cover glasses (VWR international S.A.S) using glycerol Mounting Medium (Dako) and stored at 4° C. in dark room.
(§2) The fluorescence acquisition was recorded using Olympus Microscopy IX83 (Olympus Life Science) equipped with a 60×/1.3 […]/1.4 SRI (silicone refractive index) objective, and Hamamatsu oreca flash 4 LT camera with 109 nm/pixel calibrated pixel size. The excitation light was emitted by X-CITE 120LED using the AT180/30X excited filter and signal was monitored using AT535/40m emission filter. Green light exposition time was 600 ms and white light exposition time was determined by DIC methods at […]. The acquisition area size analyzed by the Celisens dimension V1.16 software was different depending on the cell number containing in the spot.
(§3) The images were processed using count and measure unit of the Cellsens dimension V1.16 software. The background noise was deleted as follows: ROI were first defined on the background of the image and the average pixel intensity was calculated. The value thus obtained was subtracted from all pixels of the image. The fluorescence intensity of each cell was determined from a threshold set at a value of 3030. All pixels that have intensity below 3030 were not counted.
(§4) The same experiments as in example 2 with other cancer and corresponding non cancer cells were performed. The culture media were adapted to the tested cells and supplemented by 10% fetal bovine serum (FBS). Ara-N3 probe (10 mM) was added to culture media with FBS concentration (10%). The incubation times corresponded to one doubling time or twice doubling time of the tested cells (see table below).
(§5) The fluorescence signal cancer/non cancer ratios were calculated based on fluorescence intensities obtained with Ara-N3 tested on cancer and corresponding non cancer cells.

A431 (vs Hacat) = details: A431 (30 h) vs Hacat (30 h); Ara-N3 10 mM; FBS 10%; one doubling time
Experimental: as §1, §2, §3, §4, §5

[1] = system: A549 (vs Bronchial epithelial cell); details: A549 (doubling time 40 h) vs Bronchial epithelial cell (40 h); Ara-N3 10 mM; FBS 10%; test at 2 doubling time
Experimental: as §1, §2, §3, §4, §5

[2] = system: AGS (vs Stomach epitelial cell); details: AGS (doubling time 30 h) vs Stomach epitelial cell (30 h); Ara-N3 10 mM; FBS 10%; test at 2 doubling time
Experimental: as §1, §2, §3, §4, §5

[3] = system: BL-2 (vs Isolated primary B cells); details: BL-2 (24 h) vs Isolated primary B cells; Ara-N3 10 mM; FBS 10%
Experimental: as §1, §2, §3, §4, §5

HL-60 (vs Lymphocytes T) = details: HL-60 (28 h) vs Lymphocytes T (24 h); Ara-N3 10 mM; FBS 10%; one doubling time
Experimental: as §1, §2, §3, §4, §5

[4] = system: HT29 (vs Colon epithelial cell); details: HT29 (doubling time 40 h) vs Colon epithelial cell (40 h); Ara-N3 10 mM; FBS 10%; test at 2 doubling time
Experimental: as §1, §2, §3, §4, §5

K562 (vs Lymphocytes T) = details: K562 (24 h) vs Lymphocytes T (24 h); Ara-N3 10 mM; FBS 10%; one doubling time
Experimental: as §1, §2, §3, §4, §5

MDA MB453 (vs HME-1) = details: MDA MB453 (30 h) vs HME-1 (30 h); Ara-N3 10 mM; FBS 10%; one doubling time
Experimental: as §1, §2, §3, §4, §5

[5] = system: MDA-MB-231 (vs Breast epithelial cell); details: MDA-MB-231 (doubling time 40 h) vs Breast epithelial cell (40 h); Ara-N3 10 mM; FBS 10%; test at 2 doubling time
Experimental: as §1, §2, §3, §4, §5

NAMALWA (vs B12-F8) = details: NAMALWA (20 h) vs B12-F8 (24 h); Ara-N3 10 mM; FBS 10%; one doubling time
Experimental: as §1, §2, §3, §4, §5

[6] = system: OCI-Ly10 (vs Isolated primary B cells); details: OCI-Ly10 (24 h) vs Isolated primary B cells; Ara-N3 10 mM; FBS 10%
Experimental: as §1, §2, §3, §4, §5

PANC (vs HPNE) = details: PANC (32 h) vs HPNE (32 h); Ara-N3 10 mM; FBS 10%; one doubling time
Experimental: as §1, §2, §3, §4, §5

SK-BR-7 (vs HME-1) = details: SK-BR-7 (30 h) vs HME-1 (30 h); Ara-N3 10 mM; FBS 10%; one doubling time
Experimental: as §1, §2, §3, §4, §5

[7] = system: THP1 (vs Monocytes/Macrophages); details: THP1 (26 h) vs Monocytes/Macrophages (26 h); Ara-N3 10 mM; FBS 10%; one doubling time
Experimental: as §1, §2, §3, §4, §5

Q: How did the “Cancer/Non Cancer Ratio (fluorescence signal)” value (shortened to “Cancer/Non Cancer Ratio”) (A375 (vs PIG)) turn out when `[N-]=[N+]=NC[C@H]1OC(O)[C@@H](O)[C@@H]1O` (stereo partly drawn) [Ara-N3, 5-azido-5-deoxy-D-arabinofuranose] was run?
A: Its value is 3.5.

Q: What about the “Cancer/Non Cancer Ratio” value (A431 (vs Hacat)) of the same molecule?
A: The value was 17.5.

Q: What about the “Cancer/Non Cancer Ratio” value [1] of the same molecule?
A: Its value is 7.7.

Q: And the “Cancer/Non Cancer Ratio” value [2]?
A: Its value is 2.9.

Q: And the “Cancer/Non Cancer Ratio” value [3]?
A: The value was 2.5.

Q: What about the “Cancer/Non Cancer Ratio” value (HL-60 (vs Lymphocytes T)) of the same molecule?
A: The value was 1.6.

Q: And the “Cancer/Non Cancer Ratio” value [4]?
A: The value was 13.2.

Q: What about the “Cancer/Non Cancer Ratio” value (K562 (vs Lymphocytes T)) of the same molecule?
A: The value was 1.6.

Q: And the “Cancer/Non Cancer Ratio” value (MDA MB453 (vs HME-1))?
A: Its value is 2.2.

Q: What about the “Cancer/Non Cancer Ratio” value [5] of the same molecule?
A: The value was 2.5.

Q: What about the “Cancer/Non Cancer Ratio” value (NAMALWA (vs B12-F8)) of the same molecule?
A: The value was 2.3.

Q: And the “Cancer/Non Cancer Ratio” value [6]?
A: Its value is 2.1.

Q: What about the “Cancer/Non Cancer Ratio” value (PANC (vs HPNE)) of the same molecule?
A: Its value is 1.8.

Q: And the “Cancer/Non Cancer Ratio” value (SK-BR-7 (vs HME-1))?
A: Its value is 2.1.

Q: And the “Cancer/Non Cancer Ratio” value [7]?
A: Its value is 19.5.
